In data set [1] the test system is GARFT. Conditions: cited from earlier work.
For data set [2], the system named is L1210. Kind of data set: In vitro growth inhibition, L1210, MTT, Example 2. It is filed as cell-based. The following applies: Mus musculus, Continuous (72-hour) exposure, mean IC50, read-out: IC50 Cell Culture L1210. As for the experimental part: All cultures were maintained at 37° C., 5% air-CO2 in a humidified incubator.
Stock solutions of the inhibitors were prepared in 10 mM sodium bicarbonate in water and stored in 1 ml aliquots at -20° C. for cell culture experiments. Cell growth inhibition was measured by a modification of the method of Mosmann, J. Immunol. Methods 65 (1983), 55-63.
Mid-log phase cells of each cell line were diluted to 18,500 cells/ml in fresh RPMI growth medium (Mediatech, Washington, DC) supplemented with dialyzed fetal calf serum (Hyclone Laboratories Inc., Logan, Utah) and then aliquotted into columns 2 through 12 of 96-well microtiter plates. Column 1 was filled with the same volume ([…]) of fresh medium, without cells, for use as a blank. The plates were then placed in a 37° C., 5% air-CO2 incubator. After 1 to 4 hours, plates were removed from the incubator followed by addition of Compound (21) at 10×final concentration, […] in binary dilutions, to columns 12 to 4. […] The extent of metabolized MTT was measured spectrophotometrically at 540 nm on a Molecular Devices Vmax™ kinetic microplate reader. The concentration of drug required to reduce cell growth by 50% as measured by MTT metabolism was determined by interpolation between the O.D. (minus blank) immediately above and below 50% of control O.D. (minus blank). […]

In data set [3] the test system is 6C3HED lymphosarcoma. As to the kind of experiment: In vivo antitumor activity, 6C3HED lymphosarcoma. Also noted: species or system C3H/He female mice. The following applies: intraperitoneal, once daily for nine days; for % Inhibition: tumor mass day 11. As for the experimental part:
On day zero, 2 mm^2 trocar fragments of 6C3HED lymphosarcoma were implanted subcutaneously in the axillary region into groups of six C3H/He female mice. Starting on day 1, the test compound was administered intraperitoneally in 40% Encapsin given once daily for nine days. Control animals received identical treatment without test compound. The percentage inhibition given in Table 5 below was calculated by comparing the mass of the control tumors (receiving diluent only) on day 11 to those of animals receiving test compound.

Data set [4] deals with C3H/BA mammary adenocarcinoma. As to the kind of experiment: In vivo antitumor activity, C3H/BA mammary adenocarcinoma. Details: species or system C3H/He female mice. Conditions: intraperitoneal, once daily for nine days, tumor mass day 14. As for the experimental part:
On day zero, 2 mm^2 trocar fragments of C3H/BA mammary adenocarcinoma were implanted subcutaneously in the axillary region into groups of six C3H/He female mice. Starting on day 1, the test compound was administered intraperitoneally in 40% Encapsin given once daily for nine days. Control animals received identical treatment without test compound. The percentage of inhibition was calculated by comparing the mass of the control tumors (receiving diluent only) on day 14 to those of animals receiving test compound.

The values that follow come from patent US5610319A, “Compound useful as antiproliferative agents and GARFT inhibitors” (Agouron Pharmaceuticals, Inc., priority 1995, dated 1997).

For `Nc1nc2c(c(=O)[nH]1)CC(CCc1ccc(C(=O)N[C@@H](CCC(=O)O)C(=O)O)cc1)CN2` (some centres unmarked) [5,10-dideazatetrahydrofolic acid], the GARFT inhibition result in data set [1] is listed as “specific tight binding inhibitor of GARFT”.

One may read the IC50 as the concentration that gives 50% inhibition. The % Inhibition is the change of the read-out against control, counted positive when it falls. With `Nc1nc2c(c(=O)[nH]1)SC(CCc1ccc(C(=O)N[C@@H](CCC(=O)O)C(=O)O)s1)CN2` (stereo partly drawn) [Compound 21, 4-[2-(2-Amino-4-oxo-4,6,7,8-tetrahydro-3H-pyrimido[5,4-6][1,4]thiazin-6-yl)-ethyl]-2,5-thienoylamino-L-glutamic acid], in data set [2], the IC50 was 16 nM. In addition, the “% Inhibition” value in data set [3] (12.5 mg/kg) is listed as 100%; in data set [3] (25 mg/kg) it was 100%; in data set [4] (5 mg/kg) it was 16%; in data set [4] (10 mg/kg), 84%; in data set [4] (20 mg/kg), 100%. Also, the “% Inhibition (given as toxic)” value in data set [3] (50 mg/kg, day 11) is reported as “toxic”.
